Results on six compounds are retold here after patent publication US20230219934A1, “2,3-DISUBSTITUTED PYRIDO[3,4-B]PYRAZINE-CONTAINING COMPOUNDS AS KINASE INHIBITORS” (Purdue Research Foundation, priority 2020, published 2023).

SMILES strings stand for the structures.

The term GI50 denotes the concentration at which growth is held to half of that of the control. Read a high GI50 as less potent growth inhibition. Broadly, the IC50 is the concentration at which inhibition is half-maximal.

Data set [1] concerns K562 cell line (leukemia). The data set can be described thus: NCI-60 GI50 determination, K562. The class given is cell-based. As to conditions: Homo sapiens, NCI Developmental Therapeutics Program in-vitro testing, 48 h. How it is done:
(§1) According to the National Cancer Institute, Bethesda, Md. (the protocol of the Drug Evaluation Branch), the effects of compounds are measured as follows: Cell suspensions are diluted to a target cell density of 5000-40,000 cells per well (based on cell growth characteristics) in a 96-well microtiter plates. The test compounds were evaluated at five concentrations (10-fold dilutions) with the highest concentration being 100 μM. The incubation period was 48 h under 5% carbon dioxide atmosphere and 100% humidity. A sulforhodamine B assay was used to assay the cells. Optical densities of the wells were read by a plate reader the optical densities were processed into GI50 (the concentration that causes 50% growth inhibition).
(§2) The NCI renamed the IC50 value, the concentration of compound that causes 50% growth inhibition, as follows.
(§3) GI50=100×(T−T0)/(C−T0)=50, where T=the optical density of the test well after a 48-h period of exposure to test drug, T0=the optical density at time zero, C=the control optical density. The control is the well not treated with test agent (https://dtp.cancer.gov/databases_tools/docs/compare/compare_methodology.htm).

The next data set relates to EKVX (NSCLC). The data set can be described thus: NCI-60 GI50 determination, EKVX. The class given is cell-based. To be noted: Homo sapiens, NCI Developmental Therapeutics Program in-vitro testing, 48 h. On the procedure: as §1, §2, §3
Data set [2] concerns some lung and colon cancers. The data set can be described thus: NCI-60 potency comparison on lung and colon cancers. The class given is cell-based. To be noted: more potently than HSL212. On the procedure:
as §1, §2, §3

In data set [3] the test system is KM12 (colon and driven by TrkA kinase). Description: NCI-60 GI50 determination, KM12. Type of data set: cell-based. To be noted: Homo sapiens, NCI Developmental Therapeutics Program in-vitro testing, 48 h. On the procedure: as §1, §2, §3
A further data set can be described thus: Tolerability in mice. Type of data set: in vivo.
In data set [4] the test system is tumor harboring solvent front RET810 mutation. The data set can be described thus: Growth of tumor harboring solvent front RET810 mutation. Type of data set: in vivo, mice. As to conditions: HSL476 at 25 mg/Kg (daily).
Data set [5] relates to cell line harboring RET G810R. Description: Inhibition of cell line harboring RET G810R. Type of data set: cell-based. To be noted: under similar conditions.
A short description of another data set: Oral bioavailability. As to conditions: in vivo.
For data set [6], the system named is cell lines harboring RET solvent front mutations. Description: Inhibition of selpercatinib and pralsetinib-resistant cell lines. The class given is cell-based.
A further data set concerns MiaPaCa-2. The data set can be described thus: MIA PaCa-2 pancreatic cancer cell growth inhibition (CellTitre Blue viability). Type of data set: cell-based. To be noted: Homo sapiens, pancreatic cancer cell line, 72 hours. On the procedure: Cell Culture: MIA PaCa-2 cells were cultured in RPMI media supplemented with 10% fetal bovine serum, 1% GlutaMax Supplement (GIBCO™), 1% Penicillin-Streptomycin (GIBCO™). Cells were seeded in a 96-well plate at 1.1×10^4 cells/mL. Cells were incubated at […] for 24 hours after which plates were treated in triplicates with 10 uL of compound (0.6 μM in DMSO) that was further diluted in the same media (5 μL of compound into 145 μL of media). For IC50 compounds were tested at 9 different concentrations, initial concentration of 0.6 μM in DMSO and subsequently diluted by a third for the other 8 concentrations. This was incubated at […] for 72 hours after which 10 uL of The CellTitre Blue Cell Viability Assay (Promega, Madison Wis.) was added to each well and incubated at […] for 3 hours. Plates were read on a CYTATION™ 5 Cell Imaging Multi-Mode Reader (BioTek). Appropriate controls were used. Graphed using GraphPadPrism 5.0 Software.

As for `Cc1nc2cncc(C#Cc3cncc(C(=O)Nc4ccc(CN5CCN(C)CC5)c(C(F)(F)F)c4)c3)c2nc1C` [HSL211, 5-((2,3-dimethylpyrido[3,4-b]pyrazin-8-yl)ethynyl)-N-(4-((4-methylpiperazin-1-yl)methyl)-3-(trifluoromethyl)phenyl)nicotinamide], the 50% growth inhibitory concentration (GI50) in data set [1] is under 5 nM; in the data set on EKVX (NSCLC), 484 nM; in data set [3], under 5 nM. For the same compound, in data set [2], the “Potency relative to HSL212 on some lung and colon cancers” value was about 100 ×.
On to `CN1CCN(Cc2ccc(NC(=O)c3cncc(C#Cc4cncc5nccnc45)c3)cc2C(F)(F)F)CC1` [HSL212, N-(4-((4-methylpiperazin-1-yl)methyl)-3-(trifluoromethyl)phenyl) (pyrido[3,4-b]pyrazin-8-ylethynyl)nicotinamide], for which the results for the GI50 (in data set [1]; with EKVX (NSCLC); in data set [3]) were under 5 nM, over 50000 nM and 136 nM, respectively.
In the case of `Cc1nc2cnc(N)c(C#Cc3cncc(C(=O)Nc4ccc(CN5CCN(C)CC5)c(C(F)(F)F)c4)c3)c2nc1C` [HSL476, 5-((7-amino-2,3-dimethylpyrido[3,4-b]pyrazin-8-yl)ethynyl)-N-(4-((4-methylpiperazin-1-yl)methyl)-3-(trifluoromethyl)phenyl)nicotinamide], the Tolerability result in “Tolerability in mice” is listed as “well tolerated”. Moreover, the “Effect on growth of tumor harboring solvent front RET810 mutation” value in data set [4] was “could reduce growth tumor”. Further, the IC50 is 18 nM in [5], under 20 nM in data set [6] and 25 nM in the data set with MiaPaCa-2. In addition, the Oral bioavailability entry in the data set “Oral bioavailability” is given as “orally bioavailable”.
As for `COc1ccc(CN2C3CC2CN(c2ccc(-c4cc(OCC(C)(C)O)cn5ncc(C#N)c45)cn2)C3)cn1` [Selpercatinib, reference compound], the “Effect on growth of tumor harboring solvent front RET810 mutation” value in data set [4] was “ineffective”. The compound also yielded an IC50 in data set [5] of 2620 nM.
As to `Cc1ccc(C(=O)Nc2ccc(CN3CCN(C)CC3)c(C(F)(F)F)c2)cc1C#Cc1cnc2cccnn12` [ponatinib], in [5], the half-inhibitory concentration (IC50) was determined as 77 nM.
In data set [5], `CO[C@]1(C(=O)N[C@@H](C)c2ccc(-n3cc(F)cn3)nc2)CC[C@H](c2nc(C)cc(Nc3cc(C)[nH]n3)n2)CC1` [pralsetinib] had an IC50 of 7320 nM.
